Patent publication US20100197584A1, “USE OF CURCUMIN TO BLOCK BRAIN TUMOR FORMATION IN MICE” (Research Foundations of the City University of- New York, priority 2007, published 2010)

Tests used:
phospho-Akt = assay: Western blot of B16F10 cells, phospho-Akt; format: cell-based, mouse; settings: 50 μM (FIG. 9)
Description: (§1) B16F10 cells were cultured in 10-cm plates and then treated in duplicate with carrier or curcumin (50 μM). Following treatment for appropriate time periods, the cells were washed with PBS, lysed in RIPA buffer (PBS containing 1% Nonidet P40, 0.5% sodium deoxycholate, 0.1% SDS, 0.5 mM Na3VO4 plus freshly added PMSF and protease inhibitor cocktail; Boeringer-Roche), and then 20 μg of lysate protein (per lane) were analyzed by SDS-10% PAGE and Western blot analysis. Antibody concentrations used were: anti-phospho-NF-κB (1:1000) (Santa Cruz Biotechnology, Santa Cruz, Calif.), anti-phospho-Akt (1:5000) (Cell Signaling, CA), anti-cyclin D1 (1:1000) (Cell Signaling, CA), anti-BclXL (1:500) (Santa Cruz Biotechnology), anti-VEGF (1:500) (Santa Cruz Biotechnology), and anti-β-actin (1:1000) (Sigma, St. Louis, Mo.).

phospho-NF-κB = assay: Western blot of B16F10 cells, phospho-NF-κB; format: cell-based, mouse; settings: 50 μM (FIG. 9)
Description: as §1

[1] = tested on: N18 (mouse neuroblastoma) cells; assay: Cell viability assay using MTT, N18; format: cell-based; settings: 25 μM and 50 μM, 48 h or 96 h, versus control cells (FIG. 6c)
Description: Cells. B16F10 (mouse melanoma), GL261 (mouse glioma), HOG (human oligodendroglioma), A549 (human lung cancer), and N18 (mouse neuroblastoma) cells were cultured separately in DMEM containing 10% (v/v) fetal bovine serum and 1% (v/v) penicillin-streptomycin (PS) and allowed to grow to 40% confluence in a 96-well plate.
Curcumin Treatment. Two hours before drug treatment, the medium in each well was replaced with 200 μl Neurobasal medium supplemented with 2% (v/v) B27 and 1% (v/v) PS (Drug-treatment Medium). A stock solution (40 mM) of curcumin was prepared in sterile dimethyl sulfoxide (DMSO) (Example 1). Through serial dilution of each stock solution in Drug-treatment Medium, the following concentrations were obtained: 20 μM and 50 μM (for caspase 3/7 assays) or 25 μM and 50 μM (for MTT assays). […] Additionally, the background absorbance was determined from parallel wells containing only the Drug-treatment Medium plus a particular concentration of the drug (no cells).
Cell Viability Assay Using MTT (3-(4,5-Dimethylthiazolyl-2)-2,5-Diphenyltetrazolium Bromide). […] Absorbance was measured at 570 nm using a 96-well multi scanner auto-reader with the extraction buffer used as blank. For curcumin samples, the absorbance obtained from the corresponding curcumin plus medium samples was subtracted.

[2] = Permeability of the blood-brain barrier to curcumin (HPLC of brain after tail vein injection); format: in vivo, mouse
Description: A curcumin solution (200 μl of 667 μM curcumin in PBS containing 3% DMSO) was injected through the tail vein of each mouse, the mice were sacrificed after 15 min, 30 min, and 2 hours, and brain regions (forebrain, hippocampus, and hypothalamus) as well as blood were collected for analysis. Each tissue fraction was diluted into 300 μl of water, homogenized, and then diluted with 700 μl of acetonitrile. Proteins and other insoluble substances were separated by centrifugation at 8000 rpm in a table-top Eppendorf microcentrifuge, and the supernatants were transferred to fresh tubes and then evaporated by blowing in nitrogen gas. The blood (100 μl) was diluted with 40 μl EDTA (500 mM) and 160 μl of water. This mixture was diluted with 700 μl of actonitrile, vortexed, protein and debris separated by centrifugation and then the supernatant evaporated under nitrogen. The residues obtained were dissolved in 50 μl of acetonitrile:water (70:30) and 30 μl of this solution injected for HPLC analysis on a C18 reverse-phase column. A standard 0.1 mM solution of curcumin dissolved in acetonitrile:water (70:30) was injected for comparison. The mobile phase was a 30-70% gradient of acetonitrile in water containing 0.1% trifluoroacetic acid (TFA). Curcumin eluted as a closely spaced triplet with the strongest peak eluting at 12.8 min.

curcumin in mouse brain (HPLC trace) ([2]; 15 minutes after tail vein injection of 200 μl of 667 μM curcumin (FIG. 7b)): presence of curcumin
curcumin in mouse brain (HPLC trace) ([2]; 30 minutes after tail vein injection of 200 μl of 667 μM curcumin (FIG. 7c)): presence of curcumin
time by which curcumin was completely metabolized ([2]; mouse brain, after tail vein injection of 200 μl of 667 μM curcumin (FIG. 7d)): ≤ 2 h
SMILES: COc1cc(/C=C/C(=O)CC(=O)/C=C/c2ccc(O)c(OC)c2)ccc1O [curcumin]
phospho-Akt (Western blot) (phospho-Akt): suppression
phospho-NF-κB (Western blot) (phospho-NF-κB): suppression
cell viability (MTT) [1]: dramatic decrease
